In patent US11033547B2, “Carboxamide-pyrimidine derivatives as SHP2 antagonists” (Merck Patent GmbH, priority 2019, dated 2021):

Each compound was assayed against Full length SHP2 protein (Recombinant Human SHP-2) (Homo sapiens, UniProt Q06124) (assay: SHP2 biochemical assay (DiFMUP substrate, activating peptide IRSI_2pY)). Settings: DiFMUP substrate, activating peptide IRSI_2pY, 60 min at RT; read-out: SHP-2 Biochemical assay IC50.
Method: The inhibition of SHP2 by compounds of the invention was monitored using the surrogate substrate DiFMUP after protein activation by a peptide bearing two appropriately spaced phosphotyrosine. […] The generation of the DiFMU product by activated SHP2 was monitored through Fluorescence measurement with a PerkinElmer Envision reader.
The inhibitor dose response curves were analyzed with Genedata Screener.

Sequence of Full length SHP2 protein (Recombinant Human SHP-2) (Q06124 2-593 limits assumed): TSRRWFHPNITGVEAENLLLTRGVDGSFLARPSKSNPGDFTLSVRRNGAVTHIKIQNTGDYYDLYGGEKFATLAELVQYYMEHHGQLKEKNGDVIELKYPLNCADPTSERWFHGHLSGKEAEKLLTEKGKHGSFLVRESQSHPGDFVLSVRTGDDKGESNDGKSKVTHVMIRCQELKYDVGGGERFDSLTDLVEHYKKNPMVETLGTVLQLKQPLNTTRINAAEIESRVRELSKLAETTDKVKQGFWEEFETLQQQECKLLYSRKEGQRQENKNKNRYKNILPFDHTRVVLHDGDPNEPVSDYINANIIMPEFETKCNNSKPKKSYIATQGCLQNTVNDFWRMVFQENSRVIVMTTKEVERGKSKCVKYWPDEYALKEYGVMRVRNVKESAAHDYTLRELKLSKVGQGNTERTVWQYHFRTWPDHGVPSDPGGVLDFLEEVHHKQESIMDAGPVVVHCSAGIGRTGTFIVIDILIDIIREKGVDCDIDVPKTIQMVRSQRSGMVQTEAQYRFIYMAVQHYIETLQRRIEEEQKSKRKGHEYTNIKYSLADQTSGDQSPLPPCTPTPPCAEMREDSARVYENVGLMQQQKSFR

Row | IC50 [µM] | SMILES
1 | > 10 | CC1(N)CCN(c2nc(N)c(-c3ccc4cn[nH]c4c3Cl)c(C(N)=O)n2)CC1 [Compound 62, 6-Amino-2-(4-amino-4-methyl-piperidin-1-yl)-5-(7-chloro-1H-indazol-6-yl)-pyrimidine-4-carboxylic acid amide]
2 | > 10 | Cc1nc(N2CCC(C)(N)CC2)nc(C(N)=O)c1-c1ccncc1 [Compound 86, 2-(4-Amino-4-methyl-piperidin-1-yl)-6-methyl-5-pyridin-4-yl-pyrimidine-4-carboxylic acid amide]
3 | 1.2 | Cc1nc(N[C@H]2CCC[C@@H](N)C2)nc(C(N)=O)c1-c1cccc(Cl)c1Cl (atropisomer, axis not shown; (M)) [Compound 87, (4M)-2-{[(1S,3R)-3-aminocyclohexyl]amino}-5-(2,3-dichlorophenyl)-6-methylpyrimidine-4-carboxamide]
4 | 10 | NC(=O)c1nc(N[C@@H]2CCNC[C@@H]2F)nc(N)c1-c1cccc(Cl)c1Cl (atropisomer, axis not shown; (M)) [Compound 64, (5M)-6-amino-5-(2,3-dichlorophenyl)-2-{[(3S,4R)-3-fluoropiperidin-4-yl]amino}-pyrimidine-4-carboxamide]
5 | 17 | NC[C@@]12CCCC[C@@H]1CN(c1nc(N)c(-c3cccc(Cl)c3Cl)c(C(N)=O)n1)C2 (single isomer, unassigned) [Compound 102]
6 | 21 | CC1(N)CCN(c2nc(F)c(-c3cccc(F)c3)c(C(N)=O)n2)CC1 [Compound 22, 2-(4-Amino-4-methyl-piperidin-1-yl)-6-fluoro-5-(3-fluorophenyl)-pyrimidine-4-carboxylic Acid Amide]
7 | 11 | Cc1nc(N2CC(F)(CN)C2)nc(C(N)=O)c1-c1cccc(Cl)c1Cl [Compound 44, 2-(3-Aminomethyl-3-fluoro-azetidin-1-yl)-5-(2,3-dichloro-phenyl)-6-methyl-pyrimidine-4-carboxylic acid amide]
8 | 10 | NC(=O)c1nc(N2CC3CCCC(N)C3C2)nc(N)c1-c1cccc(Cl)c1Cl (stereo not drawn) [Compound 50, 6-amino-2-(4-amino-octahydro-1H-isoindol-2-yl)-5-(2,3-dichlorophenyl)pyrimidine-4-carboxamide]
9 | > 10 | Cc1nc(N2CCOC[C@@H]2CN)nc(C(N)=O)c1-c1cccc(Cl)c1Cl (atropisomer, axis not shown; (P)) [Compound 48, (4P)-2-[(3S)-3-(aminomethyl)morpholin-4-yl]-5-(2,3-dichlorophenyl)-6-methylpyrimidine-4-carboxamide]
10 | 4.8 | Cc1nc(N2CC3CCC(N)C3C2)nc(C(N)=O)c1-c1cccc(Cl)c1Cl (stereo not drawn) [Compound 42, 2-(4-Amino-hexahydro-cyclopenta[c]pyrrol-2-yl)-5-(2,3-dichloro-phenyl)-6-methyl-pyrimidine-4-carboxylic acid amide]
11 | 7 | NC(=O)c1nc(N2CCC3(CC2)Oc2ncccc2[C@@H]3N)nc(N)c1-c1cccc(Cl)c1Cl (single isomer, unassigned) [Compound 131]
12 | > 10 | Cc1nc(N2CCOC[C@H]2CN)nc(C(N)=O)c1-c1cccc(Cl)c1Cl (atropisomer, axis not shown; (P)) [Compound 47, (4P)-2-[(3R)-3-(aminomethyl)morpholin-4-yl]-5-(2,3-dichlorophenyl)-6-methylpyrimidine-4-carboxamide]
13 | 7.9 | Cc1nc(N2CCC(C)(N)CC2)nc(C(N)=O)c1-c1cccc(Cl)c1Cl (atropisomer, axis not shown; (P)) [Compound 31, (4P)-2-(4-amino-4-methylpiperidin-1-yl)-5-(2,3-dichlorophenyl)-6-methylpyrimidine-4-carboxamide]
14 | 5.6 | NC(=O)c1nc(N2CC(N)C2)nc(N)c1-c1cccc(Cl)c1Cl [Compound 69, 6-amino-2-(3-aminoazetidin-1-yl)-5-(2,3-dichlorophenyl)-pyrimidine-4-carboxamide]
15 | 1.1 | NCC1CN(c2nc(N)c(-c3cccc(Cl)c3Cl)c(C(N)=O)n2)CC12COC2 (stereo not drawn) [Compound 34, 6-amino-2-[8-(aminomethyl)-2-oxa-6-azaspiro[3.4]octan-6-yl]-5-(2,3-dichloro-phenyl)pyrimidine-4-carboxamide]
16 | 3.9 | NCC1CC2(CCN(c3nc(N)c(-c4cccc(Cl)c4Cl)c(C(N)=O)n3)CC2)CO1 (stereo not drawn) [Compound 40, 6-amino-2-[3-(aminomethyl)-2-oxa-8-azaspiro[4.5]decan-8-yl]-5-(2,3-dichlorophenyl)pyrimidine-4-carboxamide]

Row | IC50 [µM] | SMILES
17 | 1.1 | Cc1nc(N2CCC3(CCC[C@@H]3N)C2)nc(C(N)=O)c1-c1cccc(Cl)c1Cl (stereo in doubt) [Compound 37, 2-((S)-6-Amino-2-aza-spiro[4.4]non-2-yl)-5-(2,3-dichloro-phenyl)-6-methyl-pyrimidine-4-carboxylic acid amide]
18 | 1.7 | CC1(CN)CN(c2nc(N)c(-c3cccc(Cl)c3Cl)c(C(N)=O)n2)C1 [Compound 55, 6-amino-2-[3-(aminomethyl)-3-methylazetidin-1-yl]-5-(2,3-dichlorophenyl)pyrimidine-4-carboxamide]
19 | 0.33 | NC(=O)c1nc(N2CCC3(CC2)Oc2ncccc2C3N)nc(N)c1-c1cccc(Cl)c1Cl (single isomer, unassigned) [Compound 129]
20 | > 10 | Cc1nc(N2C[C@@H]3CC[C@H](N)[C@@H]3C2)nc(C(N)=O)c1-c1cccc(Cl)c1Cl [Compound 74, 2-((3aS,4S,6aR)-4-Amino-hexahydro-cyclopenta-[c]pyrrol-2-yl)-5-(2,3-dichloro-phenyl)-6-methyl-pyrimidine-4-carboxylic acid amide]
21 | 2.1 | Cc1nc(N2C[C@@H]3CC[C@@H](N)[C@@H]3C2)nc(C(N)=O)c1-c1cccc(Cl)c1Cl [Compound 75, 2-((3aS,4R,6aR)-4-Amino-hexahydro-cyclopenta[c]pyrrol-2-yl)-5-(2,3-dichloro-phenyl)-6-methyl-pyrimidine-4-carboxylic acid amide]
22 | 1.4 | CC1(N)CCN(c2nc(Cl)c(-c3cccc(Cl)c3Cl)c(C(N)=O)n2)CC1 (atropisomer, axis not shown; (M)) [Compound 78, (4M)-2-(4-amino-4-methylpiperidin-1-yl)-6-chloro-5-(2,3-dichlorophenyl)-pyrimidine-4-carboxamide]
23 | 5.5 | Cc1nc(N2CCC2CN)nc(C(N)=O)c1-c1cccc(Cl)c1Cl (stereo not drawn) [Compound 46, 2-(2-Aminomethyl-azetidin-1-yl)-5-(2,3-dichloro-phenyl)-6-methyl-pyrimidine-4-carboxylic acid amide]
24 | 0.66 | Cc1nc(N2CCC3(CCC[C@H]3N)CC2)nc(C(N)=O)c1-c1cccc(Cl)c1Cl (single isomer, unassigned) [Compound 113]
25 | 0.53 | Cc1nc(N2CCC3(CC2)Oc2ncccc2[C@@H]3N)nc(C(N)=O)c1-c1cccc(Cl)c1Cl [Compound 125, (4M)-2-[(3S)-3-amino-3H-spiro[furo[2,3-b]pyridine-2,4′-piperidin]-1′-yl]-5-(2,3-dichlorophenyl)-6-methylpyrimidine-4-carboxamide]
26 | 13 | Cc1nc(N[C@@H]2CCC[C@H](N)C2)nc(C(N)=O)c1-c1cccc(Cl)c1Cl (atropisomer, axis not shown; (P)) [Compound 89, (4P)-2-{[(1R,3S)-3-aminocyclohexyl]amino}-5-(2,3-dichlorophenyl)-6-methylpyrimidine-4-carboxamide]
27 | 0.006 | NC(=O)c1nc(N2CCC3(CC2)Oc2ncccc2C3N)nc(N)c1-c1cccc(Cl)c1Cl (single isomer, unassigned) [Compound 128]
28 | 6.3 | Cc1nc(N2C[C@H](N)[C@@H](O)C2)nc(C(N)=O)c1-c1cccc(Cl)c1Cl [Compound 84, 2-((3S,4S)-3-Amino-4-hydroxy-pyrrolidin-1-yl)-5-(2,3-dichloro-phenyl)-6-methyl-pyrimidine-4-carboxylic acid amide]
29 | 2 | Cc1nc(N2CCC(C)(N)CC2)nc(C(N)=O)c1-c1ccc(F)cc1Cl [Compound 82, 2-(4-Amino-4-methyl-piperidin-1-yl)-5-(2-chloro-4-fluoro-phenyl)-6-methyl-pyrimidine-4-carboxylic acid amide]
30 | 5.6 | NC[C@]12CCCC[C@H]1CN(c1nc(N)c(-c3cccc(Cl)c3Cl)c(C(N)=O)n1)C2 (single isomer, unassigned) [Compound 103]
31 | 14 | Cc1nc(N2CCC(C)(N)CC2)nc(C(N)=O)c1-c1cnccc1Cl [Compound 83, 2-(4-Amino-4-methyl-piperidin-1-yl)-5-(4-chloro-pyridin-3-yl)-6-methyl-pyrimidine-4-carboxylic acid amide]
32 | 0.077 | NC(=O)c1nc(N2CCC3(CC2)Oc2ncccc2[C@@H]3N)nc(N)c1-c1cccc(Cl)c1Cl (single isomer, unassigned) [Compound 130]

Row | SMILES | IC50 [µM]
33 | NC(=O)c1nc(N2CCC3(CC2)Cc2ccccc2[C@H]3N)nc(N)c1-c1cccc(Cl)c1Cl (single isomer, unassigned) [Compound 118] | 0.041
34 | NCC1CC2CCC(C1)N2c1nc(N)c(-c2cccc(Cl)c2Cl)c(C(N)=O)n1 (stereo not drawn) [Compound 12, 6-amino-2-[3-(aminomethyl)-8-azabicyclo[3.2.1]octan-8-yl]-5-(2,3-dichlorophenyl)pyrimidine-4-carboxamide] | 1.6
35 | Cc1nc(N2C3COCC2CC(N)C3)nc(C(N)=O)c1-c1cccc(Cl)c1Cl (stereo not drawn) [Compound 33, 2-(7-Amino-3-oxa-9-aza-bicyclo[3.3.1]non-9-yl)-5-(2,3-dichlorophenyl)-6-methyl-pyrimidine-4-carboxylic acid amide] | 2.4
36 | NC(=O)c1nc(NC2CCOC3(C2)CN2CCC3CC2)nc(N)c1-c1cccc(Cl)c1Cl (stereo not drawn) [Compound 52, 6-amino-2-({4-azaspiro[bicyclo[2.2.2]octane-2,2′-oxan]-4′-yl}amino)-5-(2,3-dichlorophenyl)pyrimidine-4-carboxamide] | > 10
